Experimental data: PMC6114901, “An automated screening method for detecting compounds with goitrogenic activity using transgenic zebrafish embryos” (PLoS ONE, 2018)
Like-named read-outs stand apart in the source and are kept apart here.

Key:
[1] = tested on: zebrafish embryos; assay: in vivo; conditions: for LC10: unit not given, in µM; for Slope: mortality concentration-response curve
Method: Fish embryo acute toxicity tests were performed similar as described previously, using 10 or 25 embryos per concentration and replicate exposed in crystallization dishes from 48 to 120 hpf. No exchange of exposure media was performed. Lethality was identified by coagulation, missing heartbeat, a non–detached tail and/or missing of somites. Raw data for mortality and phenotypic assessment are provided as S1 Table. Concentration-response curves for mortality are shown in S2 Fig.

[2] = tested on: thyroid hormone levels (T4); conditions: ref Thienpont et al. [13], cited from earlier work
[3] = 72 hpf, 15000 µmol/L, replicate 2, 10 embryos
[4] = 72 hpf, 30000 µmol/L, replicate 2, 10 embryos
[5] = 72 hpf, 50000 µmol/L, replicate 1, 10 embryos
[6] = 72 hpf, 100000 µmol/L, replicate 1, 10 embryos
[7] = 96 hpf, 20000 µmol/L, replicate 2, 10 embryos
[8] = 96 hpf, 25000 µmol/L, replicate 2, 10 embryos
[9] = 96 hpf, 30000 µmol/L, replicate 2, 10 embryos
[10] = 96 hpf, 50000 µmol/L, replicate 1, 10 embryos
[11] = 96 hpf, 50000 µmol/L, replicate 2, 10 embryos
[12] = 96 hpf, 100000 µmol/L, replicate 1, 10 embryos
[13] = 120 hpf, 10000 µmol/L, replicate 1, 10 embryos
[14] = 120 hpf, 15000 µmol/L, replicate 2, 10 embryos
[15] = 120 hpf, 20000 µmol/L, replicate 2, 10 embryos
[16] = 120 hpf, 25000 µmol/L, replicate 1, 10 embryos
[17] = 120 hpf, 25000 µmol/L, replicate 2, 10 embryos
[18] = 120 hpf, 30000 µmol/L, replicate 2, 10 embryos
[19] = 120 hpf, 40000 µmol/L, replicate 2, 10 embryos
[20] = 120 hpf, 50000 µmol/L, replicate 1, 10 embryos
[21] = 120 hpf, 50000 µmol/L, replicate 2, 10 embryos
[22] = 120 hpf, 100000 µmol/L, replicate 1, 10 embryos

[K+].[O-][Cl+3]([O-])([O-])[O-] [Potassium perchlorate, potassium perchlorate]
No Surviving ([1]; 72 hpf, 1000 µmol/L, replicate 1, 10 embryos): 10 | No Surviving ([1]; 72 hpf, 5000 µmol/L, replicate 1, 10 embryos): 10 | No Surviving ([1]; 72 hpf, 10000 µmol/L, replicate 1, 10 embryos): 10 | No Surviving [1, 3]: 10 | Sublethal effects mtail [1, 3]: 1 | No Surviving ([1]; 72 hpf, 20000 µmol/L, replicate 2, 10 embryos): 10 | No Surviving ([1]; 72 hpf, 25000 µmol/L, replicate 1, 10 embryos): 10 | No Surviving ([1]; 72 hpf, 25000 µmol/L, replicate 2, 10 embryos): 10 | Lethal effects k/f [1, 4]: 1 | No Surviving [1, 4]: 9 | No Surviving ([1]; 72 hpf, 40000 µmol/L, replicate 2, 10 embryos): 10 | Lethal effects k/f [1, 5]: 3 | No Surviving [1, 5]: 7 | Sublethal effects tip [1, 5]: 1 | No Surviving ([1]; 72 hpf, 50000 µmol/L, replicate 2, 10 embryos): 10 | Lethal effects nohb [1, 6]: 1 | No Surviving [1, 6]: 9 | Sublethal effects Total Sublethal [1, 6]: 8 | Sublethal effects beh [1, 6]: 5 | Sublethal effects nomov [1, 6]: 3 | No Surviving ([1]; 96 hpf, 1000 µmol/L, replicate 1, 10 embryos): 10 | No Surviving ([1]; 96 hpf, 5000 µmol/L, replicate 1, 10 embryos): 10 | No Surviving ([1]; 96 hpf, 10000 µmol/L, replicate 1, 10 embryos): 10 | No Surviving ([1]; 96 hpf, 15000 µmol/L, replicate 2, 10 embryos): 10 | Lethal effects nohb [1, 7]: 3 | No Surviving [1, 7]: 7 | Sublethal effects Total Sublethal [1, 7]: 1 | Sublethal effects mtail [1, 7]: 1 | No Surviving ([1]; 96 hpf, 25000 µmol/L, replicate 1, 10 embryos): 10 | Lethal effects nohb [1, 8]: 6 | No Surviving [1, 8]: 4 | Sublethal effects Total Sublethal [1, 8]: 4 | Sublethal effects nobc [1, 8]: 4 | Lethal effects k/f [1, 9]: 1 | Lethal effects nohb [1, 9]: 9 | No Surviving ([1]; 96 hpf, 40000 µmol/L, replicate 2, 10 embryos): 10 | Lethal effects k/f [1, 10]: 1 | Lethal effects nohb [1, 10]: 4 | No Surviving [1, 10]: 5 | Sublethal effects Total Sublethal [1, 10]: 3 | Sublethal effects nobc [1, 10]: 2 | Sublethal effects nomov [1, 10]: 1 | Sublethal effects tip [1, 10]: 1 | Lethal effects k/f [1, 11]: 1 | No Surviving [1, 11]: 9 | Lethal effects nohb [1, 12]: 10 | No Surviving [1, 12]: 0 | Sublethal effects nobc [1, 12]: 10 | No Surviving ([1]; 120 hpf, 1000 µmol/L, replicate 1, 10 embryos): 10 | No Surviving ([1]; 120 hpf, 5000 µmol/L, replicate 1, 10 embryos): 10 | Lethal effects nohb [1, 13]: 1 | No Surviving [1, 13]: 9 | Sublethal effects EdY / EdP [1, 13]: 1 | Sublethal effects Total Sublethal [1, 13]: 1 | Lethal effects k/f [1, 14]: 1 | Lethal effects nohb [1, 14]: 5 | No Surviving [1, 14]: 4 | Sublethal effects Total Sublethal [1, 14]: 5 | Sublethal effects mtail [1, 14]: 5 | Lethal effects k/f [1, 15]: 4 | No Surviving [1, 15]: 6 | Sublethal effects Total Sublethal [1, 15]: 6 | Sublethal effects nobc [1, 15]: 6 | Lethal effects nohb [1, 16]: 9 | No Surviving [1, 16]: 1 | Sublethal effects Total Sublethal [1, 16]: 1 | Sublethal effects nobc [1, 16]: 1 | Lethal effects k/f [1, 17]: 4 | Lethal effects nohb [1, 17]: 2 | No Surviving [1, 17]: 4 | Sublethal effects Total Sublethal [1, 17]: 4 | Sublethal effects nobc [1, 17]: 4 | Lethal effects k/f [1, 18]: 1 | No Surviving [1, 18]: 9 | Sublethal effects Total Sublethal [1, 18]: 9 | Sublethal effects nobc [1, 18]: 9 | Lethal effects k/f [1, 19]: 1 | Lethal effects nohb [1, 19]: 2 | No Surviving [1, 19]: 7 | Sublethal effects Total Sublethal [1, 19]: 7 | Sublethal effects nobc [1, 19]: 7 | Lethal effects nohb [1, 20]: 4 | No Surviving [1, 20]: 6 | Sublethal effects Total Sublethal [1, 20]: 6 | Sublethal effects nobc [1, 20]: 6 | Lethal effects k/f [1, 21]: 4 | Lethal effects nohb [1, 21]: 1 | No Surviving [1, 21]: 5 | Sublethal effects Total Sublethal [1, 21]: 5 | Sublethal effects nobc [1, 21]: 5 | Lethal effects nohb [1, 22]: 10 | No Surviving [1, 22]: 0 | LC50 ([1]; mortality after 48 h of exposure, S2 Fig, unit inferred): 50.3 mM | LC10 ([1]; mortality after 48 h of exposure, S2 Fig): 10862 | LC50 ([1]; mortality after 72 h of exposure, S2 Fig, unit inferred): 33.1 mM | LC10 ([1]; mortality after 72 h of exposure, S2 Fig): 3232 | Slope ([1]; 48 h of exposure): 1.43 | Slope ([1]; 72 h of exposure): 0.944 | LC50 ([1]; read-out: LC50 (48–120 hpf), mortality, embryos exposed 48–120 hpf): 33.1 mM | EC50 ([2]; read-out: EC50 T4 reduction, reduction of thyroid hormone levels (immunostaining)): 0.0025 mM | TDI (T4) ([2]; thyroid disruption index based on T4 reduction): 6030
